The NIST ThermoML archive (doi:10.1016/j.tca.2011.08.002)
± gives the expanded uncertainty stated by the source.

Assays:
[1] = xn = mol fraction of the nth substance listed; details: 101 kPa, Liquid, Vibrating tube method
[2] = refractive index (Na D-line) (dimensionless); xn = mol fraction of the nth substance listed; details: 101 kPa, Liquid, Standard Abbe refractometry

C1CCC(NC2CCCCC2)CC1 [N-cyclohexylcyclohexanamine] + CCCCCO
Details | mass density, [1] [kg/m3] | refractive index, [2]
288.15 K, x2 = 0 | 915.498 ± 0.23 | 1.48636 ± 0.0004
288.15 K, x2 = 0.0525 | 913.936 ± 0.23 | 1.48486 ± 0.0004
288.15 K, x2 = 0.1 | 912.365 ± 0.23 | 1.48356 ± 0.0004
288.15 K, x2 = 0.2006 | 908.415 ± 0.23 | 1.47999 ± 0.0004
288.15 K, x2 = 0.2999 | 903.722 ± 0.23 | 1.47587 ± 0.0004
288.15 K, x2 = 0.3985 | 898.063 ± 0.23 | 1.47109 ± 0.0004
288.15 K, x2 = 0.5001 | 890.925 ± 0.23 | 1.46523 ± 0.0004
288.15 K, x2 = 0.5999 | 882.166 ± 0.23 | 1.45834 ± 0.0004
288.15 K, x2 = 0.6992 | 871.226 ± 0.23 | 1.45002 ± 0.0004
288.15 K, x2 = 0.7993 | 857.281 ± 0.24 | 1.43976 ± 0.0004
288.15 K, x2 = 0.8997 | 839.76 ± 0.24 | 1.42718 ± 0.0004
288.15 K, x2 = 0.9495 | 829.611 ± 0.24 | 1.41998 ± 0.0004
293.15 K, x2 = 0 | 911.705 ± 0.23 | 1.48416 ± 0.0004
293.15 K, x2 = 0.0525 | 910.13 ± 0.23 | 1.48266 ± 0.0004
293.15 K, x2 = 0.1 | 908.547 ± 0.23 | 1.48135 ± 0.0004
293.15 K, x2 = 0.2006 | 904.561 ± 0.23 | 1.47776 ± 0.0004
293.15 K, x2 = 0.2999 | 899.824 ± 0.23 | 1.47364 ± 0.0004
293.15 K, x2 = 0.3985 | 894.123 ± 0.24 | 1.46884 ± 0.0004
293.15 K, x2 = 0.5001 | 886.952 ± 0.24 | 1.46298 ± 0.0004
293.15 K, x2 = 0.5999 | 878.178 ± 0.24 | 1.4561 ± 0.0004
293.15 K, x2 = 0.6992 | 867.264 ± 0.24 | 1.4478 ± 0.0004
293.15 K, x2 = 0.7993 | 853.399 ± 0.24 | 1.4376 ± 0.0004
293.15 K, x2 = 0.8997 | 835.998 ± 0.24 | 1.4251 ± 0.0004
293.15 K, x2 = 0.9495 | 825.915 ± 0.24 | 1.41796 ± 0.0004
298.15 K, x2 = 0 | 907.923 ± 0.23 | 1.48198 ± 0.0004
298.15 K, x2 = 0.0525 | 906.333 ± 0.23 | 1.48047 ± 0.0004
298.15 K, x2 = 0.1 | 904.733 ± 0.23 | 1.47916 ± 0.0004
298.15 K, x2 = 0.2006 | 900.708 ± 0.23 | 1.47554 ± 0.0004
298.15 K, x2 = 0.2999 | 895.929 ± 0.23 | 1.47141 ± 0.0004
298.15 K, x2 = 0.3985 | 890.185 ± 0.24 | 1.4666 ± 0.0004
298.15 K, x2 = 0.5001 | 882.98 ± 0.24 | 1.46073 ± 0.0004
298.15 K, x2 = 0.5999 | 874.191 ± 0.24 | 1.45386 ± 0.0004
298.15 K, x2 = 0.6992 | 863.3 ± 0.24 | 1.44555 ± 0.0004
298.15 K, x2 = 0.7993 | 849.507 ± 0.24 | 1.43542 ± 0.0004
298.15 K, x2 = 0.8997 | 832.22 ± 0.24 | 1.42299 ± 0.0004
298.15 K, x2 = 0.9495 | 822.199 ± 0.24 | 1.41591 ± 0.0004
303.15 K, x2 = 0 | 904.144 ± 0.23 | 1.47978 ± 0.0004
303.15 K, x2 = 0.0525 | 902.538 ± 0.23 | 1.47828 ± 0.0004
303.15 K, x2 = 0.1 | 900.921 ± 0.23 | 1.47694 ± 0.0004
303.15 K, x2 = 0.2006 | 896.855 ± 0.23 | 1.47333 ± 0.0004
303.15 K, x2 = 0.2999 | 892.033 ± 0.23 | 1.46918 ± 0.0004
303.15 K, x2 = 0.3985 | 886.249 ± 0.24 | 1.46437 ± 0.0004
303.15 K, x2 = 0.5001 | 879.007 ± 0.24 | 1.4585 ± 0.0004
303.15 K, x2 = 0.5999 | 870.203 ± 0.24 | 1.45162 ± 0.0004
303.15 K, x2 = 0.6992 | 859.33 ± 0.24 | 1.44334 ± 0.0004
303.15 K, x2 = 0.7993 | 845.602 ± 0.24 | 1.43327 ± 0.0004
303.15 K, x2 = 0.8997 | 828.423 ± 0.24 | 1.4209 ± 0.0004
303.15 K, x2 = 0.9495 | 818.461 ± 0.24 | 1.41383 ± 0.0004
308.15 K, x2 = 0 | 900.372 ± 0.23 | 1.47761 ± 0.0004
308.15 K, x2 = 0.0525 | 898.746 ± 0.23 | 1.47608 ± 0.0004
308.15 K, x2 = 0.1 | 897.111 ± 0.23 | 1.47475 ± 0.0004
308.15 K, x2 = 0.2006 | 893.001 ± 0.23 | 1.47113 ± 0.0004
308.15 K, x2 = 0.2999 | 888.135 ± 0.24 | 1.46696 ± 0.0004
308.15 K, x2 = 0.3985 | 882.309 ± 0.24 | 1.46214 ± 0.0004
308.15 K, x2 = 0.5001 | 875.031 ± 0.24 | 1.45627 ± 0.0004
308.15 K, x2 = 0.5999 | 866.208 ± 0.24 | 1.44937 ± 0.0004
308.15 K, x2 = 0.6992 | 855.348 ± 0.24 | 1.44113 ± 0.0004
308.15 K, x2 = 0.7993 | 841.678 ± 0.24 | 1.43108 ± 0.0004
308.15 K, x2 = 0.8997 | 824.599 ± 0.24 | 1.41881 ± 0.0004
308.15 K, x2 = 0.9495 | 814.694 ± 0.24 | 1.41175 ± 0.0004
313.15 K, x2 = 0 | 896.608 ± 0.23 | 1.47562 ± 0.0004
313.15 K, x2 = 0.0525 | 894.957 ± 0.23 | 1.47406 ± 0.0004
313.15 K, x2 = 0.1 | 893.301 ± 0.23 | 1.47258 ± 0.0004
313.15 K, x2 = 0.2006 | 889.146 ± 0.23 | 1.4689 ± 0.0004
313.15 K, x2 = 0.2999 | 884.235 ± 0.24 | 1.46472 ± 0.0004
313.15 K, x2 = 0.3985 | 878.364 ± 0.24 | 1.45985 ± 0.0004
313.15 K, x2 = 0.5001 | 871.049 ± 0.24 | 1.45396 ± 0.0004
313.15 K, x2 = 0.5999 | 862.207 ± 0.24 | 1.44702 ± 0.0004
313.15 K, x2 = 0.6992 | 851.354 ± 0.24 | 1.43878 ± 0.0004
313.15 K, x2 = 0.7993 | 837.734 ± 0.24 | 1.42876 ± 0.0004
313.15 K, x2 = 0.8997 | 820.749 ± 0.24 | 1.41655 ± 0.0004
313.15 K, x2 = 0.9495 | 810.896 ± 0.24 | 1.40963 ± 0.0004
318.15 K, x2 = 0 | 892.847 ± 0.23 | 1.47347 ± 0.0004
318.15 K, x2 = 0.0525 | 891.168 ± 0.23 | 1.4719 ± 0.0004
318.15 K, x2 = 0.1 | 889.492 ± 0.23 | 1.47041 ± 0.0004
318.15 K, x2 = 0.2006 | 885.287 ± 0.24 | 1.46671 ± 0.0004
318.15 K, x2 = 0.2999 | 880.327 ± 0.24 | 1.46251 ± 0.0004
318.15 K, x2 = 0.3985 | 874.411 ± 0.24 | 1.45762 ± 0.0004
318.15 K, x2 = 0.5001 | 867.056 ± 0.24 | 1.45172 ± 0.0004
318.15 K, x2 = 0.5999 | 858.189 ± 0.24 | 1.4448 ± 0.0004
318.15 K, x2 = 0.6992 | 847.34 ± 0.24 | 1.43659 ± 0.0004
318.15 K, x2 = 0.7993 | 833.766 ± 0.24 | 1.42658 ± 0.0004
318.15 K, x2 = 0.8997 | 816.864 ± 0.24 | 1.41445 ± 0.0004
318.15 K, x2 = 0.9495 | 807.06 ± 0.24 | 1.40753 ± 0.0004
323.15 K, x2 = 0 | 889.089 ± 0.23 | 1.47134 ± 0.0004
323.15 K, x2 = 0.0525 | 887.381 ± 0.23 | 1.46975 ± 0.0004
323.15 K, x2 = 0.1 | 885.679 ± 0.24 | 1.46826 ± 0.0004
323.15 K, x2 = 0.2006 | 881.423 ± 0.24 | 1.46457 ± 0.0004
323.15 K, x2 = 0.2999 | 876.412 ± 0.24 | 1.46034 ± 0.0004
323.15 K, x2 = 0.3985 | 870.446 ± 0.24 | 1.45547 ± 0.0004
323.15 K, x2 = 0.5001 | 863.048 ± 0.24 | 1.44954 ± 0.0004
323.15 K, x2 = 0.5999 | 854.154 ± 0.24 | 1.44263 ± 0.0004
323.15 K, x2 = 0.6992 | 843.305 ± 0.24 | 1.43439 ± 0.0004
323.15 K, x2 = 0.7993 | 829.767 ± 0.24 | 1.42439 ± 0.0004
323.15 K, x2 = 0.8997 | 812.943 ± 0.24 | 1.4123 ± 0.0004
323.15 K, x2 = 0.9495 | 803.186 ± 0.24 | 1.40539 ± 0.0004
